Experiments:
[1] = target: Angiotensin-converting enzyme (Homo sapiens) (UniProt P12821); assay: Inhibition of human ACE at 10 uM relative to control
[2] = target: Nitric oxide synthase, inducible (Homo sapiens) (UniProt P35228); assay: Inhibition of inducible NOS (unknown origin) at 10 uM relative to control
[3] = target: 72 kDa type IV collagenase (Homo sapiens) (UniProt P08253); assay: Inhibition of human MMP-2 at 10 uM relative to control
Caspase-3 (Homo sapiens) = Caspase-3 (Homo sapiens) (UniProt P42574); assay: Inhibition of human caspase-3 at 10 uM relative to control
[4] = target: Kappa-type opioid receptor (Homo sapiens, UniProt P41145); assay: Inhibition of human kappa opioid receptor
[5] = target: Alpha-1A adrenergic receptor (Homo sapiens) (UniProt P35348); assay: Inhibition of human alpha 1A receptor at 10 uM relative to control
U2OS = assay: Cytotoxicity against human U2OS cells assessed as reduction in cell viability at <50 uM by alamar blue assay; assay type: toxicity, cell-based
[6] = target: Vasoactive intestinal polypeptide receptor 1 (Homo sapiens) (UniProt P32241); assay: Inhibition of human VPAC1 at 10 uM relative to control
[7] = target: Glucocorticoid receptor (Homo sapiens) (UniProt P04150); assay: Inhibition of human GR at 10 uM relative to control
[8] = target: Beta-1 adrenergic receptor (Homo sapiens) (UniProt P08588); assay: Inhibition of human beta 1 receptor at 10 uM relative to control
[9] = target: Sodium-dependent serotonin transporter (Homo sapiens) (UniProt P31645); assay: Inhibition of human 5-HT transporter at 10 uM relative to control
[10] = target: Muscarinic acetylcholine receptor M1 (Homo sapiens) (UniProt P11229); assay: Inhibition of human M1 receptor at 10 uM relative to control
MCF7 = assay: Cytotoxicity against human MCF7 cells assessed as reduction in cell viability at <50 uM by alamar blue assay; assay type: toxicity, cell-based; details: mcf7, 50 µM
[11] = target: Melanocortin receptor 4 (Homo sapiens) (UniProt P32245); assay: Inhibition of human MC4 at 10 uM relative to control
[12] = target: Muscarinic acetylcholine receptor M4 (Homo sapiens) (UniProt P08173); assay: Inhibition of human M4 receptor at 10 uM relative to control
[13] = target: Histone-lysine N-methyltransferase SETD7 (Homo sapiens) (UniProt Q8WTS6); details: HEK293, dose 10.0 µM
[14] = target: Mu-type opioid receptor (Homo sapiens) (UniProt P35372); assay: Inhibition of human mu opioid receptor at 10 uM relative to control
Homo sapiens [15] = species on record: Homo sapiens; assay: Inhibition of kainate receptor (unknown origin) at 10 uM relative to control
Homo sapiens [16] = species on record: Homo sapiens; assay: Inhibition of SKCa channel (unknown origin) at 10 uM relative to control
[17] = target: Histamine H1 receptor (Homo sapiens) (UniProt P35367); assay: Inhibition of human H1 receptor at 10 uM relative to control
[18] = target: Insulin receptor (Homo sapiens) (UniProt P06213); assay: Inhibition of human IRK (InsR) at 10 uM relative to control
[19] = target: Adenosine receptor A2a (Homo sapiens) (UniProt P29274); assay: Inhibition of human A2A receptor at 10 uM relative to control
[20] = target: MAO-A (Amine oxidase [flavin-containing] A) (Homo sapiens, UniProt P21397); assay: Inhibition of MAO-A (unknown origin) at 10 uM relative to control
[21] = target: cGMP-inhibited 3',5'-cyclic phosphodiesterase 3B (Homo sapiens) (UniProt Q13370); assay: Inhibition of human PDE3B at 10 uM relative to control
[22] = target: Mitogen-activated protein kinase 1 (Homo sapiens) (UniProt P28482); assay: Inhibition of human ERK2 (P42mapk) at 10 uM relative to control
[23] = target: Substance-K receptor (Homo sapiens) (UniProt P21452); assay: Inhibition of human NK2 receptor at 10 uM relative to control
[24] = target: Alpha-2C adrenergic receptor (Homo sapiens) (UniProt P18825); assay: Inhibition of human alpha 2C receptor at 10 uM relative to control
[25] = target: Melatonin receptor type 1A (Homo sapiens) (UniProt P48039); assay: Inhibition of human MT1 at 10 uM relative to control
Homo sapiens [26] = species on record: Homo sapiens; assay: Inhibition of human 5-HT3 receptor at 10 uM relative to control
[27] = target: Melanin-concentrating hormone receptor 1 (Homo sapiens) (UniProt Q99705); assay: Inhibition of human MCH1 receptor at 10 uM relative to control
[28] = target: Leukotriene B4 receptor 1 (Homo sapiens) (UniProt Q15722); assay: Inhibition of human BLT1 at 10 uM relative to control
[29] = target: Cysteinyl leukotriene receptor 1 (Homo sapiens) (UniProt Q9Y271); assay: Inhibition of human CysLT1 at 10 uM relative to control
[30] = target: Somatostatin receptor type 1 (Homo sapiens) (UniProt P30872); assay: Inhibition of human sst1 at 10 uM relative to control
[31] = target: 5-hydroxytryptamine receptor 2A (Homo sapiens) (UniProt P28223); assay: Inhibition of human 5-HT2A receptor at 10 uM relative to control
[32] = target: Bombesin receptor subtype-3 (Homo sapiens, UniProt P32247); assay: Inhibition of human BB3 receptor
[33] = target: T1, Histone-lysine N-methyltransferase SETD7 (Homo sapiens, UniProt Q8WTS6); assay: Inhibition of wildtype full length human SETD7 (1 to 366 residues) expressed in Escherichia coli BL21 (DE3) V2R-pRARE using biotinylated H3 (1-25) peptide as substrate incubated for 1 hrs in presence of 3H-SAM by radioactivity based assay
T1 sequence (Q8WTS6 whole entry): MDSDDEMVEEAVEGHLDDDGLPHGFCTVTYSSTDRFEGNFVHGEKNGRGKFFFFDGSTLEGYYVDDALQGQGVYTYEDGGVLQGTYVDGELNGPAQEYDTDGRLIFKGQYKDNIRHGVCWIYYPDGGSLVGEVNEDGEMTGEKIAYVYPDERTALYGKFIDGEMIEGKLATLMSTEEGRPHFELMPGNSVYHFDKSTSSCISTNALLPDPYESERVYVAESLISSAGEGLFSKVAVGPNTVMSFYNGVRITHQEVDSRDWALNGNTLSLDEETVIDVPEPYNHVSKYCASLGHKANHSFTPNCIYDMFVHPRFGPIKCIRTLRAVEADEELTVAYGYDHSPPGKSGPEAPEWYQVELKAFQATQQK

Homo sapiens [34] = species on record: Homo sapiens; assay: Inhibition of Na+ channel site 2 (unknown origin) at 10 uM relative to control
[35] = target: Tyrosine-protein kinase Fyn (Homo sapiens) (UniProt P06241); assay: Inhibition of human Fyn kinase at 10 uM relative to control
[36] = target: Melanocortin receptor 3 (Homo sapiens) (UniProt P41968); assay: Inhibition of human MC3 receptor at 10 uM relative to control

Beta-1 adrenergic receptor (Homo sapiens), sequence (P08588 whole entry, looked up): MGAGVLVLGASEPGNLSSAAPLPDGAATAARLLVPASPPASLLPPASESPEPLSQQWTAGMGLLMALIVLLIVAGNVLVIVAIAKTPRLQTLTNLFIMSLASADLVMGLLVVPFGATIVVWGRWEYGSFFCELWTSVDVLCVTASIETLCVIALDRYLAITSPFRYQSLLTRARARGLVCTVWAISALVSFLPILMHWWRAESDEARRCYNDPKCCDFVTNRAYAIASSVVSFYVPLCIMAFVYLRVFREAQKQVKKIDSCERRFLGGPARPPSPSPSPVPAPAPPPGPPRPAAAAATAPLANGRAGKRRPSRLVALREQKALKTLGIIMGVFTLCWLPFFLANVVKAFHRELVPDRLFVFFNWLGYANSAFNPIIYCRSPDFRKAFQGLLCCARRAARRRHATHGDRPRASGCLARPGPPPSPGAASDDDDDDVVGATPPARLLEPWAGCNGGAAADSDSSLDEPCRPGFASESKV
Melanin-concentrating hormone receptor 1 (Homo sapiens), sequence (Q99705 whole entry): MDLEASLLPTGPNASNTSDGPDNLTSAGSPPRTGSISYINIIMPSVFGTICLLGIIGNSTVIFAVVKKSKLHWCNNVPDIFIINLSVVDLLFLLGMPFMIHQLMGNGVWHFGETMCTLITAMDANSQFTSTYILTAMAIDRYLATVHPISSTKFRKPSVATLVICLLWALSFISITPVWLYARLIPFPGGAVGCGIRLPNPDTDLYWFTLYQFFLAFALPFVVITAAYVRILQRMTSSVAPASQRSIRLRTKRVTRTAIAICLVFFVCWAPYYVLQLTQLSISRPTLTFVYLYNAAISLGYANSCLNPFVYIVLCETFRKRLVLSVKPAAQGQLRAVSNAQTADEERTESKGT
Glucocorticoid receptor (Homo sapiens), sequence (P04150 whole entry): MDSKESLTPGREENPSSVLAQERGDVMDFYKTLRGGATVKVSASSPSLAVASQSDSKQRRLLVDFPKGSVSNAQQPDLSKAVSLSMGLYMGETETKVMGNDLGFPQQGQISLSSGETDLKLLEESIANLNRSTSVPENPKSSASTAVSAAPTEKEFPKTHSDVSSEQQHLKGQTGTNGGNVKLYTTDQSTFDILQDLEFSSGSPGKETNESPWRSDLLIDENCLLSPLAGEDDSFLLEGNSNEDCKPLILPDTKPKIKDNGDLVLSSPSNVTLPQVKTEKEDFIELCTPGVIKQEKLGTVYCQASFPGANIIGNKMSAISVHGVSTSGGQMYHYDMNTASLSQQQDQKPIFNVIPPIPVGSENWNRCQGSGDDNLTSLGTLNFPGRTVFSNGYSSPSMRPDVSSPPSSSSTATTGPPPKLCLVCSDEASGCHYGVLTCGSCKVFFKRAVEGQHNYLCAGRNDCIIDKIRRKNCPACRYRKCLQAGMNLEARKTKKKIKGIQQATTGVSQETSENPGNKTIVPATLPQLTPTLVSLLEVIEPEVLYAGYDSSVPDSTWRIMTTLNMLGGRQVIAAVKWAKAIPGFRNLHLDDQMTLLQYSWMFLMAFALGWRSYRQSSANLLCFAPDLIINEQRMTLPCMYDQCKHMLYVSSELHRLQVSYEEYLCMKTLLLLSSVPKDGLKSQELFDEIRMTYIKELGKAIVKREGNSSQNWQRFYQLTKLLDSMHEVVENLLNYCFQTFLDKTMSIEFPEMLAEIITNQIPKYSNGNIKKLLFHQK
Muscarinic acetylcholine receptor M1 (Homo sapiens), sequence (P11229 whole entry): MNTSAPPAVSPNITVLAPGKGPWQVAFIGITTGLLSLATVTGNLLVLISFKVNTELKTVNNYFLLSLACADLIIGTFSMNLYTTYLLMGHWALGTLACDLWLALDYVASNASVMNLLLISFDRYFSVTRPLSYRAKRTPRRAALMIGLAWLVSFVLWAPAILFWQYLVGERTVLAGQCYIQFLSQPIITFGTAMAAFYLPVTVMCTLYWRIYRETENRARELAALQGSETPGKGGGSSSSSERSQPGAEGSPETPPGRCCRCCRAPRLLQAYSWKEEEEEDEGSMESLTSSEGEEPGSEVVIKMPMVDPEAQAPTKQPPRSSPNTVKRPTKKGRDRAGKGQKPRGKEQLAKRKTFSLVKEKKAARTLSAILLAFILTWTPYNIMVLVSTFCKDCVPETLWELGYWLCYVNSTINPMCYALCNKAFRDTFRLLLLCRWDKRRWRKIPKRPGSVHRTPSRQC
Mitogen-activated protein kinase 1 (Homo sapiens), sequence (P28482 whole entry): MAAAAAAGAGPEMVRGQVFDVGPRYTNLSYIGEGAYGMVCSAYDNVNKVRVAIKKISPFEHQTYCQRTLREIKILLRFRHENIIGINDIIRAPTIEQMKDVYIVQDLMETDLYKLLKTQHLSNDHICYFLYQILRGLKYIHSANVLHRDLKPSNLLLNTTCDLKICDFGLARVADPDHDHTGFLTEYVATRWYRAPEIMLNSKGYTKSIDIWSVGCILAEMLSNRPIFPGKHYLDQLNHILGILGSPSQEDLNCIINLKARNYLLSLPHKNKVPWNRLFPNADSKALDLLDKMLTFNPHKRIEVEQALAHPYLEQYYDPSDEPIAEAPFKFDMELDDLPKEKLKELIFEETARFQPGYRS
Bombesin receptor subtype-3, sequence (P32247 whole entry, the tested form may be a part): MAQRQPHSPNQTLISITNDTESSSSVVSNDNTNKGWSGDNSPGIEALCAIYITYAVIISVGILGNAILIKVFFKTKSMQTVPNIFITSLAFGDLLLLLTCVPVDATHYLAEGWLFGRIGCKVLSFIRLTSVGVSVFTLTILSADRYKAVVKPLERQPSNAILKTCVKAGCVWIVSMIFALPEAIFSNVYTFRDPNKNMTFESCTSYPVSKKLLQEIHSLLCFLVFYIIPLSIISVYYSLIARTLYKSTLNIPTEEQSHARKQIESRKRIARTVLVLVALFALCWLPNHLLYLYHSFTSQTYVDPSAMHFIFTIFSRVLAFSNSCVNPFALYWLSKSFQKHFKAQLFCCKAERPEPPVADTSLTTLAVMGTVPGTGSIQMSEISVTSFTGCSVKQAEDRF
Kappa-type opioid receptor, sequence (P41145 whole entry): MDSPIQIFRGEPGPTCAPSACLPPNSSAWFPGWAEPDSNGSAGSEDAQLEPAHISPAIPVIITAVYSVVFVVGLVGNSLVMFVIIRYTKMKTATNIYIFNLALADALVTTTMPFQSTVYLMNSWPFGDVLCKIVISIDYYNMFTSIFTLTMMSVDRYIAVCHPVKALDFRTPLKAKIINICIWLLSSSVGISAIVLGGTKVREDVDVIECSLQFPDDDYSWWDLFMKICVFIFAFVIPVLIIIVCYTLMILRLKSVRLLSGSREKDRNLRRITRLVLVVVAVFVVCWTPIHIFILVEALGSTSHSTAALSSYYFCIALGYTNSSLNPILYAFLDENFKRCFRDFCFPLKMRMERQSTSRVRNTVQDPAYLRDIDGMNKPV
Adenosine receptor A2a (Homo sapiens), sequence (P29274 whole entry): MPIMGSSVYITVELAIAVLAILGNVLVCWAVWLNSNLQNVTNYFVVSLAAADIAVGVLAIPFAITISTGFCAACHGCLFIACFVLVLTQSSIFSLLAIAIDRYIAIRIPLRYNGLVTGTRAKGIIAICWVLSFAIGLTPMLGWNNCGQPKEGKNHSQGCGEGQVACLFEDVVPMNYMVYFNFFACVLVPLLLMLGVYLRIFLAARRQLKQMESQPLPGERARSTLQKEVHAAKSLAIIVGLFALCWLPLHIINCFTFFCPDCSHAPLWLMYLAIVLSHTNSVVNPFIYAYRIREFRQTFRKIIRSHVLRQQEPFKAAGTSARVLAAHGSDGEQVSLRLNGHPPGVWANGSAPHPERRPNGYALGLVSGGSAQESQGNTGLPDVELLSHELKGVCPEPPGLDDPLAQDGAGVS
MAO-A (Amine oxidase [flavin-containing] A), sequence (P21397 whole entry): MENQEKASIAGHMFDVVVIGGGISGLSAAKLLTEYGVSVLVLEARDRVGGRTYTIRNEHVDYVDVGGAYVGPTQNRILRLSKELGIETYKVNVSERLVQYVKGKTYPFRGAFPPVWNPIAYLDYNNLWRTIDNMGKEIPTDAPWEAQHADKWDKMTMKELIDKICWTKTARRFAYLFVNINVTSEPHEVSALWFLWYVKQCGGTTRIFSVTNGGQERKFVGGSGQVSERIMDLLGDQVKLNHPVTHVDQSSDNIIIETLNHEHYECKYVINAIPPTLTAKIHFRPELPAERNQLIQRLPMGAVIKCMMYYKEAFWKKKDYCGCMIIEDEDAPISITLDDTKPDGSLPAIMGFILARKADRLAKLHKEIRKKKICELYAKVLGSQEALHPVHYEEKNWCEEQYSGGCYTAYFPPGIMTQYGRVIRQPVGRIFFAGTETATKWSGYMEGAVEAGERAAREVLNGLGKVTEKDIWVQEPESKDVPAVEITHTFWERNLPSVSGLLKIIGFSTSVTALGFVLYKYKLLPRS
Vasoactive intestinal polypeptide receptor 1 (Homo sapiens), sequence (P32241 whole entry): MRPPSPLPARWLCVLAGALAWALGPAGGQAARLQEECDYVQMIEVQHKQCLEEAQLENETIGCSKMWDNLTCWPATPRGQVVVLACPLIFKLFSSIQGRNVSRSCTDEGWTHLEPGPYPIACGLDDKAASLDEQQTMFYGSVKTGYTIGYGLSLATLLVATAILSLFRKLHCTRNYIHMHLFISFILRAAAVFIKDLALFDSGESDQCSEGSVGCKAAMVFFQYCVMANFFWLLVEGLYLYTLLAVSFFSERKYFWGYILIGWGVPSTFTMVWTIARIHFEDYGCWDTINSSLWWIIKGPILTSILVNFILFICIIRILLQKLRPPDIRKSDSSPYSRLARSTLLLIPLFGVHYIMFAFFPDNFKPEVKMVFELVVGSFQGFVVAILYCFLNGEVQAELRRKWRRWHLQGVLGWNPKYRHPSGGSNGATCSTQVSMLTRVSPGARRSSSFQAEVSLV
Melanocortin receptor 4 (Homo sapiens), sequence (P32245 whole entry): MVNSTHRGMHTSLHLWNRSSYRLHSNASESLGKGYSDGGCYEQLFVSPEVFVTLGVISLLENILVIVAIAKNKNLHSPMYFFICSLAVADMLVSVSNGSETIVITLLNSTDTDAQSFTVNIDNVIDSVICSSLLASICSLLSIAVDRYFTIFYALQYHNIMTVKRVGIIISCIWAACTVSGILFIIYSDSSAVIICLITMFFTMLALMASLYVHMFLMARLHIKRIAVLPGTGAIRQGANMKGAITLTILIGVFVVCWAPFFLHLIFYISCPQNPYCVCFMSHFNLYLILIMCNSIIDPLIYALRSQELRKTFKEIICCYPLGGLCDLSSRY

O=C([C@@H](Cc1cccc(C(F)(F)F)c1)NS(=O)(=O)c1cc(F)c2c(c1)CCNC2)N1CCCC1
inhibition [1]: -4%
inhibition [2]: -7%
inhibition [3]: 15%
inhibition (Caspase-3 (Homo sapiens)): 2%
IC50 [4]: 3.8 µM
inhibition [5]: -3%
Activity (U2OS): Non-Toxic
inhibition [6]: -8%
inhibition [7]: 5%
inhibition [8]: -6%
inhibition [9]: 9%
inhibition [10]: 16%
Activity (MCF7): Non-Toxic
inhibition [11]: 15%
inhibition [12]: 19%
deltaT [13]: 4 °C
inhibition [14]: 47%
inhibition (Homo sapiens [15]): -3%
inhibition (Homo sapiens [16]): 5%
inhibition [17]: 10%
inhibition [18]: 0%
inhibition [19]: 18%
inhibition at 10 µM [20]: 6%
inhibition [21]: -5%
inhibition [22]: 5%
inhibition [23]: 28%
inhibition [24]: 10%
inhibition [25]: 7%
inhibition (Homo sapiens [26]): -2%
inhibition [27]: -1%
inhibition [28]: -8%
inhibition [29]: -1%
inhibition [30]: 5%
inhibition [31]: 3%
IC50 [32]: 8.1 µM
IC50 [33]: 0.002 µM
inhibition (Homo sapiens [34]): 43%
inhibition [35]: 1%
inhibition [36]: 7%

From ChEMBL document CHEMBL5705898 (Proc Natl Acad Sci U S A, 2014)
